Assay results as given in ChEMBL document CHEMBL1201862, “PubChem BioAssay data set” (2004).
The source made the active and inactive calls.

Experiments:
[1] = viability inhibitors of stage V gametocytes – luminescence, dose response (AID 1117278); type: functional, cell-based;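 also: gametocytes exposed to compound for 24 hours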
[2] = viability loss in human Jurkat cells – cell-based, luminescence, cytotoxicity control for P. falciparum gametocyte viability project, dose response (AID 1117277); type: functional;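 also: potency reflects loss of cellular ATP meaning fewer viable cells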
[3] = T. cruzi growth inhibition in host cells, dose response, cell-based, plate reader, dry powder, set 2 (AID 652275); type: functional
[4] = molecular target: Mitogen-activated protein kinase 10 (Homo sapiens, UniProt P53779); experiment: Dose response biochemical screening assay for inhibitors of c-Jun N-Terminal Kinase 3 (JNK3). [Related pubchem assays: 746 ]
Protein skinhead-1 = molecular target: T1, Protein skinhead-1 (Caenorhabditis elegans, UniProt P34707); type: functional
T1 sequence (P34707 whole entry): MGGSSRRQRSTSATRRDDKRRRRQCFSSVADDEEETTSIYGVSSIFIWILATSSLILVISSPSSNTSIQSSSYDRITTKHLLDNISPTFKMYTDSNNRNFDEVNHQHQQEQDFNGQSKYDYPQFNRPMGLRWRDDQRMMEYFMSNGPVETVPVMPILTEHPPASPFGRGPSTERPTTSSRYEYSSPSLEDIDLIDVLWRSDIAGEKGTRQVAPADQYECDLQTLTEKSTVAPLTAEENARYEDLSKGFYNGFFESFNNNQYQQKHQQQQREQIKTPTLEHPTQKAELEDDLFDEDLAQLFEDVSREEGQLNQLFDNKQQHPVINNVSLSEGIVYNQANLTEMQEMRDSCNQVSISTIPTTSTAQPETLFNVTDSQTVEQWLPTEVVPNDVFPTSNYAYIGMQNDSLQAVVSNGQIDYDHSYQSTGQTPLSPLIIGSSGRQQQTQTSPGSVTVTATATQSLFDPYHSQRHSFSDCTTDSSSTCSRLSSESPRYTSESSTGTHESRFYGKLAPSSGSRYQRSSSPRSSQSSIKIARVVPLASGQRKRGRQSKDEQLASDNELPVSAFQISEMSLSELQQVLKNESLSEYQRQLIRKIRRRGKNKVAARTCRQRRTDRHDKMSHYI

Major prion protein = Major prion protein (Homo sapiens, UniProt P04156); type: functional, cell-based
cells [5] = experiment: cells
fMet-Leu-Phe receptor = molecular target: T2, fMet-Leu-Phe receptor (Homo sapiens, UniProt P21462); experiment: formyl peptide receptor binders – dose response (AID 519); type: functional
T2 sequence (P21462 whole entry): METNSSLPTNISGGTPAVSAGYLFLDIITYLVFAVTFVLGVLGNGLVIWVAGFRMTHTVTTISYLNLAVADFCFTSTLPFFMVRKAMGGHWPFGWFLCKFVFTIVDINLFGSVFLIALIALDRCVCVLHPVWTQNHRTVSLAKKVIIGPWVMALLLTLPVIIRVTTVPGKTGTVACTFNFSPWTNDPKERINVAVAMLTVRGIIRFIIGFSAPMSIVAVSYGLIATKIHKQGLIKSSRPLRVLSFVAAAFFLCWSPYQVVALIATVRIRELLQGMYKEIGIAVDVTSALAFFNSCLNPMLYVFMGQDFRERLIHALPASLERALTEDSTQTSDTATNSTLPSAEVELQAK

[6] = molecular target: T3, Aryl hydrocarbon receptor (Homo sapiens, UniProt P35869); experiment: Luminescence-based cell-based high throughput dose response assay for activators of the Aryl Hydrocarbon Receptor (AHR). [Related pubchem assays: 2796 (Primary screen (AHR activators in singlicate)), 2845 (Confirmation screen (AHR activators in triplicate)), 434939 (Counterscreen (PXR activators in triplicate)), 2804 (Summary (AHR activators))]; type: ADME
T3 sequence (P35869 whole entry): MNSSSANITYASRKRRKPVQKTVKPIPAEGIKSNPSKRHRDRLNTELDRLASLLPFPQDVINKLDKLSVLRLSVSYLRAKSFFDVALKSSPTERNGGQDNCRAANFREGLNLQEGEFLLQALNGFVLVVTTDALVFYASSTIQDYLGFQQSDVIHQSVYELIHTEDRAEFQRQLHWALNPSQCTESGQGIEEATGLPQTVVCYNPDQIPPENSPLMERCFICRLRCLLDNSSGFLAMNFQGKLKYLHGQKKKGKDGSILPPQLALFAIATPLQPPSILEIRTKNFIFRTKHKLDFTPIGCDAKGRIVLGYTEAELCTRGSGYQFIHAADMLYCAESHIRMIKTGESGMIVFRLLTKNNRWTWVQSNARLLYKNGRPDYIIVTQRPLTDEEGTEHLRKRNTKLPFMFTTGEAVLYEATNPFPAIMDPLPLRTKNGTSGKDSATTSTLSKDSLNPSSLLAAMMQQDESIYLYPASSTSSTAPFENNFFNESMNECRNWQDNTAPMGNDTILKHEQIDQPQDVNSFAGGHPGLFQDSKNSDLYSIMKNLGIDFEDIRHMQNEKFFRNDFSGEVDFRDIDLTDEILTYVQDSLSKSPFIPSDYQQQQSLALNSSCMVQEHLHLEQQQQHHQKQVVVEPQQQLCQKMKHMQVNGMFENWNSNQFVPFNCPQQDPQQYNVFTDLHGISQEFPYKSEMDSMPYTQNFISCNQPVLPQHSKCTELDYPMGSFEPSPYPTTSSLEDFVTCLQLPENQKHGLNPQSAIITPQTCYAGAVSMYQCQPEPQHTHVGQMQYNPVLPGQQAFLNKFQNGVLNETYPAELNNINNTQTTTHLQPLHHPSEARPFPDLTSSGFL

[7] = blockers of HIV-1 envelope-mediated cell-cell fusion – cherry-pick, dose response (AID 652057); type: functional, cell-based
[8] = viability loss in CEM21 cells – cell-based, CellTiter-Glo luminescence, cherry-picked, cytotoxicity control for viral fusion inhibitor project, dose response (AID 652042); type: functional;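 also: potency for signal decrease meaning cytotoxicity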
[9] = blockers of HIV-1 ZM109 envelope-driven cell-cell fusion – HeLa effector, CEM target cells, luciferase, cherry-pick, dose response (AID 652058); type: functional, cell-based;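 also: luciferase signal from HIV-1 Env mediated cell-cell fusion of effector and target cells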
[10] = off-target signal loss in HeLa-CEM21 co-culture – HeLa F-luc CTL cells, cherry-picked, counter-screen for HIV-1 Env fusion inhibitor project, dose response (AID 652040); type: functional, cell-based;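 also: potency for signal decrease marking cytotoxic or nonspecific inhibition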
[11] = HIV-1 AD8 envelope cell-cell fusion blockers – cherry-pick, dose response (AID 652062); type: functional, cell-based;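 also: luciferase signal from cell-cell fusion driven by HIV-1 clade B AD8 Env; potency is for inhibitors of fusion seen as a drop in luminescence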
[12] = molecular target: T4, Oxysterols receptor LXR-beta (Homo sapiens, UniProt P55055); type: functional, cell-based;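 also: Cell-based luminescence dose-response assay of agonist activity at LXR, run as a confirmatory counterscreen to a daf-12 agonist screen; HEK293 cells with Gal4-LXR fusion and GAL4-driven luciferase reporter; agonist potency from rising luciferase signal of a Gal4-LXR reporter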
T4 sequence (P55055 whole entry): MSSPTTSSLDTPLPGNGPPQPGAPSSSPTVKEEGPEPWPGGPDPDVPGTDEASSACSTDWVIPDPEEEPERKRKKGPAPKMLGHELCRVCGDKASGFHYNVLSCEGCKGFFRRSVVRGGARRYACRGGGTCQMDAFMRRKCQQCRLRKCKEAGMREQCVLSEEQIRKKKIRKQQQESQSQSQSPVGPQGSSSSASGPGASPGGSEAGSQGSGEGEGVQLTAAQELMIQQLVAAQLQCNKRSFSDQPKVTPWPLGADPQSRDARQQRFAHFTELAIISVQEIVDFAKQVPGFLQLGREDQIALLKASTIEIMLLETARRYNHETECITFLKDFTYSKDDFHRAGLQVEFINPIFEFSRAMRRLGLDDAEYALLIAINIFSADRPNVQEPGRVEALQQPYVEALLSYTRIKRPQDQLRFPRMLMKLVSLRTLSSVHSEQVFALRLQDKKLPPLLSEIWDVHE

cells [13] = experiment: cells; remark: listed apart in the source
[14] = molecular target: T5, Luciferin 4-monooxygenase (Photinus pyralis, UniProt P08659); experiment: Counter Screen for Luciferase-based Assay Positives. [Related pubchem assays: 620, 618, 411 ]
[15] = molecular target: T5, Luciferin 4-monooxygenase; experiment: inhibition of purified Photinus pyralis luciferase – biochemical, luminescence, dose response (AID 1891)
[16] = Luminescence Cell-Based Dose Confirmation HTS to Identify Inhibitors of Platelet Dense Granule Release. [Related pubchem assays: 1663 (Primary HTS), 1678 (Summary of Project)]; type: functional
[17] = viability of PTEN-deleted HCT116 cells – cell-based, HCT116 PTEN knockout, dose response (AID 1047); type: functional;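 also: HCT116 colon tumor cells with PTEN knocked out; cells exposed to compound for 60 hours before readout; potency for loss of cell viability measured by luminescence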
HT-1080 = experiment: HT1080 cell viability loss – fluorescence readout (AID 620); type: functional, cell-based; details: Homo sapiens
[18] = viability of HCT116 lacking mutant beta-catenin – cell-based, human colon tumor, dose response (AID 1045); type: functional;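 also: HCT116 colon tumor cells with beta catenin knocked out; cells exposed to compound for 60 hours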
Cytochrome P450 3A4 = Cytochrome P450 3A4 (Homo sapiens, UniProt P08684);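 also: CYP3A4 tested as one member of a cytochrome P450 panel screen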

O=C(O)CCN1C(=O)c2ccc(NC(=O)c3ccco3)cc2C1=O
IC50 [1]: > 109 µM (inactive) | IC50 [2]: > 83.2 µM (inactive)

Cc1cccc(-c2ccc([C@H]3[C@H](CO)N4CCCCN(C(=O)c5cccnc5)C[C@@H]34)cc2)c1
AC50 [3]: 2.3 µM (active)

Cc1cc(C)cc(COn2ccnc2)c1
IC50 [1]: > 109 µM (inactive) | IC50 [2]: > 83.4 µM (inactive)

COc1ccc(-c2nnc(-c3ccc(Br)o3)o2)cc1OC
IC50 [4]: > 93.1 µM (not active) | IC50 (Protein skinhead-1): > 100 µM (inactive) | IC50 (Major prion protein): 4.59 µM (active) | IC50 (cells [5]): > 138 µM (inactive)

CCCOc1ccc(C2C(C(=O)c3ccc(C)o3)=C(O)C(=O)N2Cc2cccnc2)cc1 (stereo not drawn)
Ki (fMet-Leu-Phe receptor): 42.7 µM (inactive)

O=C(NCc1nc2ccccc2[nH]1)c1cccs1
IC50 [4]: 43 µM (not active)

CCOc1c(Cl)cc(C(=O)Nc2cccc(C(=O)O)c2)cc1Cl
IC50 [1]: > 109 µM (inactive) | IC50 [2]: > 83.2 µM (inactive)

O=C(O)CCSc1ccc2ccccc2n1
IC50 [4]: 34.8 µM (not active) | IC50 (Major prion protein): 3.19 µM (active) | IC50 (cells [5]): > 138 µM (inactive)

CC(=O)Nc1cccc(OCC(=O)Nc2ccc(F)cc2)c1
EC50 [6]: 10.6 µM (not active)

NC(=O)c1c(Br)n(C2OC(CO)C(O)C2O)c2ncnc(N)c12 (stereo not drawn)
AC50 [7]: 3.32 µM (active) | AC50 [8]: 3.1 µM (active) | AC50 [9]: 5 µM (active) | AC50 [10]: 28 µM (active) | AC50 [11]: 7.68 µM (active)

CC(=O)Nc1cccc2c1C(=O)N(c1ccc(C)cc1)C2=O
EC50 [6]: 1.09 µM (active)

CC(=O)Nc1ccc(N(C(=O)CNC(=O)c2ccco2)C(C(=O)NCC2CCCO2)c2ccccc2)cc1 (stereo not drawn)
IC50 [1]: > 109 µM (inactive) | IC50 [2]: > 83.3 µM (inactive)

CCc1ccc(OCC(=O)NCC(c2ccc(Cl)cc2)N2CCCCC2)cc1 (stereo not drawn)
AC50 [7]: 3.95 µM (active) | AC50 [8]: 28.4 µM (active) | AC50 [9]: 4.51 µM (active) | AC50 [10]: 9.03 µM (active) | AC50 [11]: 8.41 µM (active)

CCc1cc(/C(Cc2ccc3ccccc3n2)=N\O)c(O)cc1O
EC50 [6]: > 3.39 µM (active)

COc1cc(C2NC(=O)NC(C)=C2C(=O)OC2CCCC(C)C2)ccc1O (stereo not drawn)
IC50 [4]: 39.4 µM (not active)

COc1ccc(-c2cn3cccnc3n2)cc1NC(=O)C1CC1
Ki (fMet-Leu-Phe receptor): > 66.7 µM (inactive)

Cc1ccc(NC(=O)C2C(=O)N(CCO)C3(C)CC2c2ccccc2O3)cc1 (stereo not drawn)
Ki (fMet-Leu-Phe receptor): > 66.7 µM (inactive)

CC(C)N1CC[C@@H](CNCc2ccc(Oc3ccccc3)cc2)Oc2c(NC(=O)c3ccncc3)cccc2C1=O
AC50 [3]: 0.083 µM (active)

Cc1nc(N)nc(Nc2ccc(Cl)cc2)c1Br
EC50 [6]: 0.351 µM (active)

CC(C)c1ccc(-n2nc3ccc(N)cc3n2)cc1
EC50 [12]: > 67.6 µM (inactive) | EC50 (cells [13]): > 67.6 µM (inactive)

Cc1ccc2c(c1)Cc1nc3ccccc3nc1-2
EC50 [12]: > 67.6 µM (inactive) | EC50 (cells [13]): > 67.6 µM (inactive)

COc1cccc(NC(=O)c2ccncc2)c1
IC50 [1]: > 109 µM (inactive) | IC50 [2]: > 83.4 µM (inactive)

CC(=O)SCC(=O)/N=c1\sc2cc(F)ccc2n1C
Ki (fMet-Leu-Phe receptor): 22.8 µM (inactive)

Cc1ccc(-c2nc(N/N=C/c3ccncc3)c3ccccc3n2)cc1
EC50 [14]: 7.97 µM (active) | EC50 [15]: 0.158 µM (active) | EC50 [16]: 0.209 µM (active) | EC50 [17]: 59.3 µM (active) | EC50 (HT-1080): > 50 µM (not active) | EC50 [18]: 43.7 µM (active) | EC50 [12]: > 67.5 µM (inactive) | EC50 (cells [13]): > 67.5 µM (inactive)

COc1cccc2c(O)c(C(=O)NCc3cccs3)cnc12
IC50 [4]: 18.9 µM (not active) | AC50 (Cytochrome P450 3A4): 1.78 µM (inconclusive)

O=C(Nc1ccc(Cl)c(Cl)c1)N[C@H]1CC[C@H](CCn2cc(C3CCCCC3)nn2)O[C@@H]1CO
AC50 [7]: 18.9 µM (active) | AC50 [8]: 61 µM (active) | AC50 [9]: 16.8 µM (active) | AC50 [11]: 43.9 µM (active)

CC(C)N1C[C@H](CNCc2ccc(Oc3ccccc3)cc2)Oc2c(NC(=O)c3ccncc3)cccc2C1=O
AC50 [3]: 0.0164 µM (active)
